Measurements from article PMC9221546, “New Phenylglycinamide Derivatives with Hybrid Structure as Candidates for New Broad-Spectrum Anticonvulsants” (Cells, 2022).

Legend:
[1] = tested on: MES-induced seizures in mice; test: Maximal electroshock seizure (MES) test; format: in vivo; conditions: for protection in MES screening / responders at 100 mg/kg: 100 mg/kg i.p., 0.5 h; for protection in MES screening: four mice; for responders at 100 mg/kg / ED50: Mus musculus, ip; for responders at 100 mg/kg: read-out: MES screening: number of mice protected/number of mice tested (converted); for ED50: mice, pretreatment time 0.5 h, (95% confidence limits)
Outline: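 Adult male Albino Swiss mice (22–26 g), compounds suspended in 1% aqueous Tween 80, single i.p. injection, tested 0.5 h post-dose. Screening at 100 mg/kg with four mice per group; ED50 from 3–4 groups of eight. PI = TD50 (chimney test) / ED50.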

[2] = tested on: 6 Hz (44 mA) seizures in mice; test: 6 Hz (44 mA) seizure model of drug-resistant epilepsy; format: in vivo; conditions: Mus musculus, ip, pretreatment time 0.5 h, (95% confidence limits)
Procedure: Adult male Albino Swiss mice that weighed between 22 and 26 g were used in the in vivo studies. They were housed under standardized housing conditions in colony cages and had free access to food as well as tap water. The animals were left to adapt under laboratory conditions for 7 days. All procedures involving animals and their care were performed in accordance with the current European Community and Polish legislation on animal experimentation.
In the initial screening studies, four mice per group were randomly assigned to each experimental group (each mouse was used only once). To evaluate the ED50 or TD50 values, 3–4 groups that consisted of eight animals were injected with various doses of tested compounds. The protective indexes (PIs) for the compounds that were investigated and reference ASDs were calculated by dividing the TD50 value, as determined in the chimney test (or rotarod test), by the respective ED50 value, as determined in the MES, scPTZ, or 6 Hz (32 mA or 44 mA) tests (PI = TD50/ED50). The PIs is a measure of the potential therapeutic window of the tested agent.
All substances were suspended in Tween 80 (1% aqueous solution) and administered i.p. as a single injection at a dose of 10 mL/kg. […]
Taking into consideration the potent protection of 53 and 60 in the 6 Hz (32 mA) seizure model, these compounds were also evaluated by applying a higher current intensity of 44 mA. […]

mice = test: Grip strength test (neuromuscular strength); format: in vivo; conditions: 50 mg/kg i.p., 0.5 h
Procedure: In studies assessing the acute effect of compounds 53 and 60 on the ivPTZ seizure threshold and neuromuscular strength, compounds 53 and 60 was suspended in a 1% solution of Tween 80 and administered i.p., at a dose of 10 mL/kg body weight. Each experimental group consisted of 9–12 animals (ivPTZ seizure threshold test) or 9−10 animals (grip strength test). The timed ivPTZ test was employed to evaluate the acute effect of compounds 53 and 60 on the seizure thresholds for (1) the first myoclonic twitch, (2) generalized clonic seizure with loss of righting reflex, and (3) forelimb tonus. The experimental procedure of the timed ivPTZ test was described in detail elsewhere. The acute effect of compounds 53 and 60 on neuromuscular strength was quantified using the grip-strength apparatus (BIOSEB, Chaville, France) according to the method that is described elsewhere. The results are depicted in Figure 2 (ivPTZ seizure threshold test, see Section 3 Results and Discussion) and Figure 3 (grip strength test, see Section 3 Results and Discussion).
Figure 3 Acute effects of 53 and 60 on the neuromuscular strength in mice. Compounds 53 and 60 were administered i.p. 0.5 h before the seizure test. Control animals received vehicle only. Each experimental group consisted of 9–10 animals. Each bar represents the mean + SEM grip strengths in millinewtons per gram of mouse body weight (mN/g).

[3] = target: T1, Calcium Cav1.2 channels (dihydropyridine site) (Homo sapiens, UniProt Q13936); test: Calcium Cav1.2 channel binding (dihydropyridine site, antagonist radioligand); conditions: 10 µM; human recombinant HEK-293 cell; read-out: % Inhibition of Control Specific Binding, Cav1.2 (dihydropyridine site)
T1 construct: host or cells: HEK-293

TRPV1 (VR1) (h) = target: T2, TRPV1 (VR1) (h) (Homo sapiens, UniProt Q8NER1); test: TRPV1 (VR1) (h) antagonist effect functional assay; format: cell-based; conditions: human recombinant CHO cells, read-out: % Inhibition of control agonist response, TRPV1 (antagonist effect)
T2 construct: host or cells: CHO
T2 sequence (Q8NER1 whole entry): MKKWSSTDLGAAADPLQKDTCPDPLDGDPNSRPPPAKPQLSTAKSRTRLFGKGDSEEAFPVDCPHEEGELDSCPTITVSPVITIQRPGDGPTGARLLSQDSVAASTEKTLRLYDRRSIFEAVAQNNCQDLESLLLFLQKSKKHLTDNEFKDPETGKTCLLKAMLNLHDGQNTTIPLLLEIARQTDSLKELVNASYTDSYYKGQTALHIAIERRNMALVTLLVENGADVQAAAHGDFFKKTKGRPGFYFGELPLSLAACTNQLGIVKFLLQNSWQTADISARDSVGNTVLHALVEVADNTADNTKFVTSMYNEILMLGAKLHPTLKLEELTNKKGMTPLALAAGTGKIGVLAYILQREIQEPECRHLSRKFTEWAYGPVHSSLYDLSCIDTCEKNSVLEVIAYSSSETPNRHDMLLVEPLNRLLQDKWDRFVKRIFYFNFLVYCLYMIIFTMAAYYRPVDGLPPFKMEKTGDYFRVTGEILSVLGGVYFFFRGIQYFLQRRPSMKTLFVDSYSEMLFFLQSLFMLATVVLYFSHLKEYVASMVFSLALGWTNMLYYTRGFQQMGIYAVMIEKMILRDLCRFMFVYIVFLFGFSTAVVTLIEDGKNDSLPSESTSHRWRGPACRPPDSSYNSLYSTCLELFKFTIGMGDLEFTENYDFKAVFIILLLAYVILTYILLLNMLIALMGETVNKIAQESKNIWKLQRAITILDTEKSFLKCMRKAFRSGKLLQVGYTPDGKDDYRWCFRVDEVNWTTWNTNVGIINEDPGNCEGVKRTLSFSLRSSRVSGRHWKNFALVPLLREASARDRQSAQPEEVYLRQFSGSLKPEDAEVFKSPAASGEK
Outline: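 Commercial Eurofins radioligand binding and functional panel: [3H]GABA agonist binding for GABAA, antagonist radioligand binding for GABA transporter, cell-based calcium flux antagonist assay for human Cav1.2. TRPV1 antagonism measured in human recombinant CHO cells at 100 µM as % inhibition of control agonist response.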

recombinant human CYP2C9 = target: T3, recombinant human CYP2C9 (Homo sapiens, UniProt P11712); test: CYP2C9 P450-Glo luminescent assay; format: in vitro ADME
T3 construct: purchased Promega (Madison, WI, USA)
T3 sequence (P11712 whole entry): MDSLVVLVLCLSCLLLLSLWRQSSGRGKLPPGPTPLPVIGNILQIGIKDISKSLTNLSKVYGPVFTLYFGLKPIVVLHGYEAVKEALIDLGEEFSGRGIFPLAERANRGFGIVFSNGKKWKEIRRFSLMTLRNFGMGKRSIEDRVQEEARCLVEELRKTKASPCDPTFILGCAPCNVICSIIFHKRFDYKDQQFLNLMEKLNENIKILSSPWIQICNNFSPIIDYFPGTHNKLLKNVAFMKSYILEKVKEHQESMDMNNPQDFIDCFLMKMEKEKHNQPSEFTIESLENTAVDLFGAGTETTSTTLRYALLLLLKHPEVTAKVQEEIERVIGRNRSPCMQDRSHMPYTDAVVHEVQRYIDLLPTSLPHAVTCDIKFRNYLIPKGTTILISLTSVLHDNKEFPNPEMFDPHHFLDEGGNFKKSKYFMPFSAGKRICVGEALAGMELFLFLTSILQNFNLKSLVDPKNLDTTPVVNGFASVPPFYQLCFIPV
Procedure: The risk of potential DDIs was predicted with use of luminescent CYP3A4, 2D6, and 2C9 P450-Glo assays (Figure 6). […] However, such an effect was also observed in our previous studies for other pyrrolidine-2,5-dione derivatives. […] However, the potential risk of DDI of 60 was still assessed as very low, and was compared to the selective CYP2C9 inhibitor sulfaphenazole (Figure 6C).
The data were analyzed with one-way ANOVA, followed by Bonferroni’s Multiple Comparison Post Test (Graph Pad Prism 8.0.1 software, San Diego, CA, USA)): * p < 0.05, ** p < 0.01, *** p < 0.001 **** p < 0.0001. The compounds were examined in triplicate.

[4] = PAMPA permeability (Pre-coated PAMPA Plate System Gentest); format: in vitro ADME; conditions: read-out: Pe (permeability coefficient) ± SD

effect on neuromuscular strength (grip strength) (mice) | inhibition at 100 µM (TRPV1 (VR1) (h)) | Papp [4] | SMILES | protection in MES screening [1] | responders at 100 mg/kg [1] | ED50 [1] | ED50 [2] | inhibition at 10 µM [3] | influence on CYP2C9 activity (recombinant human CYP2C9)
did not significantly affect | 128% |  | CC(=O)NC(C(=O)N1CCN(c2cccc(C(F)(F)F)c2)CC1)c1ccccc1 (centres unmarked) [Compound 53, N-(2-oxo-1-phenyl-2-(4-(3-(trifluoromethyl)phenyl)piperazin-1-yl)ethyl)acetamide] | 75% | 75% | 89.7 mg/kg | 68 mg/kg | 4% | weak inhibition effect
did not significantly affect | 110% | 9.15 ± 0.78 ×10⁻⁶ cm/s | CC(=O)NC(C(=O)N1CCN(c2cccc(OC(F)(F)F)c2)CC1)c1ccccc1 (centres unmarked) [Compound 60, N-(2-oxo-1-phenyl-2-(4-(3-(trifluoromethoxy)phenyl)piperazin-1-yl)ethyl)acetamide] | 75% | 75% | 73.6 mg/kg | 56.3 mg/kg | 7% | a little stronger influence, observed also at 10 µM
